Data as given in patent US20230218714A1, “DIAGNOSTICS AND USE OF QUORUM SENSING MOLECULES IN MUSCLE WASTING” (Universiteit Gent, priority 2019, published 2023).
“Also recorded” adds a separate entry of the source. Where no end group is shown, it is not given here.

Legend:
[1] = test system: C. elegans; assay: C. elegans swimming behaviour (muscle wasting/aging model); type: in vivo; parameters: key to Wave initiation rate / Asymmetry / Stretch / Curling / Travel speed / Brush stroke / Activity index: relative to placebo set to 1.0; conditions: for muscle wasting / aging muscle phenotype in C. elegans: QSP in medium (1 μM; QSP022 also 10 μM), swimming parameters; for Activity index / Asymmetry / Body wave number / Brush stroke / Curling / Stretch / Travel speed / Wave initiation rate: DMSO positive control
Source text: The C. elegans model is a well-established aging model: they diminish in locomotory vigor as they age, a phenomenon that is attributed to a physical deterioration of muscle and synapses. QSPs were introduced in the medium of living C. elegans. As comparisons, a placebo experiment was used as negative control, while DMSO was used as positive control.
Using automatic, objective imaging software, different swimming behaviour variables associated with this decrease in locomotory vigor or muscle wasting were investigated. Wave initiation rate, travel speed, brush stroke and activity index do decrease with muscle wasting, while body wave number, asymmetry, curling and stretch do increase with muscle wasting, as described in Restif et al., Plos Computational Biology, 2014.
More in particular, the results in these tables show Q184-associated changes in three swimming parameters in wild-type adults at day 3 (Table 9) and day 12 (Table 10) (n=120-170 from 3 independent trials for each condition). Data presented are means±s.e.m (placebo set to 1.0).

[2] = C. elegans medium, 1 μM during 12 days
[3] = test system: C2C12 myoblasts; assay: MTT cell viability assay in C2C12 myoblasts
Experimental: The mouse myoblast C2C12 cell line (ATCC, CRL-1772) was cultured at 37° C. in a 5% CO2 humidified incubator in Dulbecco's modified Eagle medium (DMEM; Thermo Fisher Scientific). For C2C12 cell proliferation, the medium was supplemented with 10% fetal bovine serum (FBS; Thermo Fisher Scientific), 100 units/ml penicillin, and 100 μg/ml streptomycin (1% Pen/Strep; Thermo Fisher Scientific). The proliferation medium was renewed each 2-3 days and confluency was kept below 80%. For differentiation of the C2C12 myoblasts into myotubes, proliferation medium was replaced by differentiation medium when cells reached 80% confluency.
Viability of QSM was assessed using the 3-(4,5-dimethylthiazol-2-yl)-2,5-diphenyltetrazolium bromide (MTT) assay. Briefly, C2C12 myoblasts were seeded in a 96-well plate (3×10^4 cells/well). 24 hours post-seeding, the wells were treated with QSM (1 μM), placebo or positive control (DMSO 2%) and incubated for 24 hours at 37° C. Next, 20 μL of MTT reagent (5 mg/mL; Sigma-Aldrich) was added to each well and the plates were returned to the incubator for 2.5 hours. After incubation, supernatant was removed from the wells and 150 μL of DMSO was added to release and dissolve the formazan crystals. Absorbance was measured at 570 nm using a microplate reader (Thermo Fisher).
The MTT assay is a widely validated and accepted viability assay for screening experiments. In this assay, the reduction of MTT into formazan, catalysed by living cell enzymes, is used as a marker of cell viability. If QSM are cytotoxic or cytostatic towards C2C12 cells, a decrease in MTT reduction is expected (viability less than 100%), while an increased C2C12 proliferation caused by QSM will result in an increased MTT reduction (viability more than 100%).
In a further set of experiments, the dose response effect of QSPs Q22 and Q184 was assessed on MTT reduction of C2C12 myotubes (tables 7.4 and 7.5).

[4] = test system: C2C12 myotubes; assay: MTT reduction dose response in C2C12 myotubes; type: cell-based, mouse
Experimental: In a further set of experiments, using similar methods as described for the screening experiments, a number of QSPs were tested for a dose response relation in C2C12 cells.

[5] = test system: human muscle cells; assay: MTT reduction dose response in human muscle cells; type: cell-based; conditions: FIG. 9
Experimental: Differentiation medium consisted of high glucose Glutamax DMEM supplemented with penicillin (100 units/ml), streptomycin (100 μg/ml) and insulin (10 μg/mL).
Using similar methods as described for the C2C12 experiments, a number of QSPs were tested for a dose response relation in human muscle cells.

[6] = day 3, placebo set to 1.0, Q184 at 1 μM
[7] = day 12, placebo set to 1.0, Q184 at 1 μM

## SIFTLVA [Q184, SIFTLVA]
[1]
  muscle wasting / aging muscle phenotype in C. elegans: induced a muscle wasting phenotype; also recorded: muscle wasting effects; also recorded: inducing a muscle wasting phenotype
[1]; listed as QSP184
  muscle wasting / aging muscle phenotype in C. elegans: induces an aging muscle phenotype
[1]; [6]
  Activity index: 0.82
  Asymmetry: 1.10
  Body wave number: 1.01
  Brush stroke: 0.87
  Curling: 0.92
  Stretch: 1.03
  Travel speed: 0.55
  Wave initiation rate: 0.90
[1]; [7]
  Activity index: 0.85
  Asymmetry: 1.37
  Body wave number: 1.29
  Brush stroke: 0.89
  Curling: 1.50
  Stretch: 1.06
  Travel speed: 0.81
  Wave initiation rate: 0.84
[2]
  stability in the medium: high stability
[3]; Blasts
  Imax (relative MTT): 0.63 relative MTT
[3]; MTT, Blasts
  IC10: 400 nM
  IC50: 1490 nM
[3]; screening at 1 μM, hit selection by MAD/quartile/SSMD/robust SSMD
  Effect: viability (hit direction): decreasing viability hits
[4]; MTT, Tubes
  IC10: 10 nM
  IC50: 60 nM
[4]; Tubes
  Imax (relative MTT): 0.48 relative MTT
[4]; concentration 0.10 μM
  Relative MTT: 0.68
[4]; concentration 0.50 μM
  Relative MTT: 0.60
[4]; concentration 1.00 μM
  Relative MTT: 0.56
[4]; concentration 5.00 μM
  Relative MTT: 0.49
[4]; concentration 10 μM
  Relative MTT: 0.49
[5]
  dose response relation, MTT reduction: Typical curves were obtained
